Assay results reported in patent publication US20240293322A1, “SUSTAINED RELEASE FORMULATIONS COMPRISING A SELECTIVE ANDROGEN RECEPTOR MODULATOR” (University of Iowa Research Foundation, priority 2021, published 2024).
“Also recorded” adds a separate entry of the source.

Key:
C57BL/6J mice = test: Rewarding behavior, condition place preference testing; format: in vivo; settings: SARM 25 mg/kg s.c. daily for 5 days
Excerpt: To test if SARM produced rewarding behavior condition place preference testing was employed using a 9-day testing paradigm. The boxes used for testing were 27.5″ by 8.25″ divided into two 10.75″ by 8.25″ pairing chambers and a 4.75″ by 8.25″ middle chamber. The pairing chambers had different colored walls (solid black vs black and white stripe) and floor textures (smooth vs ridged). The middle chamber had solid black walls with smooth floors and was illuminated. Acclimation and baseline testing occurred over the first 3 days. Animals were placed in boxes with access to all 3 chambers for 15 minutes. On the third day, time spent in each box was recorded. Drug pairing then occurred for 5 days on days 4 through 8. Each day, animals were injected subcutaneously with SARM vehicle (80:20; PEG300:DMSO) and placed in a pairing chamber for 60 minutes. Animals were then returned to their home cages. Four hours later animals were subcutaneously injected with SARM (25 mg/kg) and were confined to the opposite pairing chamber for 60 minutes. Chamber pairings were counterbalanced amongst animals. Following pairing, on day 9, animals were placed in boxes with access to all 3 chambers for 15 minutes with time spent in each box recorded. In order to determine if rewarding behavior was present, the amount of time spent in SARM paired chambers was compared between baseline and post drug pairing.

[1] = test system: acidic saline muscle pain model; test: Acidic saline muscle pain model, paw allodynia by von Frey monofilament; format: in vivo, C57BL/6J mice; settings: daily SARM 25 mg/kg s.c. for 4 weeks vs vehicle; ipsilateral and contralateral paw
Excerpt: (§1) A decrease in MWT was interpreted as muscle hyperalgesia.

[2] = test system: acidic saline muscle pain model; test: Acidic saline muscle pain (fibromyalgia) model, muscle withdrawal threshold (MWT); format: in vivo, C57BL/6J mice
Procedure: A SARM was tested its ability to alleviate pain using a model of fibromyalgia (Sluka et al., 2001). The model is induced by repeated injections of acidic saline into the gastrocnemius muscle, 5 days apart. After the second injection animals develop widespread pain behavior, termed hyperalgesia, that resolves in 4 weeks. Pain-behaviors are tested by using a device to apply deep pressure to the gastrocnemius muscle; withdrawal from this pressure is considered a pain-response.
Pain was induced using the model after which daily administration of SARMs or a vehicle was performed for 4 weeks. Withdrawal thresholds of the muscle were tested before and after induction of the model, and weekly after administration of the SARM. A decrease in withdrawal threshold is interpreted as increased pain sensitivity or hyperalgesia. […] Daily administration is clinically cumbersome and results in lower adherence to the treatment and so a long acting SARM containing microparticle formulation was developed to treat pain, e.g., chronic pain.
as §1
The SARM, (s)-3-(4-cyanophenoxy)-n-(4-cyano-3-(trifluoromethyl)phenyl)-2-hydroxy-2-methylpropanamide (Achemblock, San Francisco, CA, USA), was used in the following experiments. To test for the analgesic effects of SARM the acidic saline muscle pain model was induced and the presence of hyperalgesia 24 hours after model induction was confirmed. Animals then received daily subcutaneous injections of either SARM or vehicle for the next 4 weeks. For SARM administration, the drug was dissolved in dimethyl sulfoxide (DMSO; Fisher Scientific, Waltham, MA, USA) at a concentration of 50 mg/ml and then diluted in polyethylene glycol 300 (PEG300; Med Lab Supply, Pompano Beach, FL, USA) until a final solution of 10 mg/ml in 80:20 PEG300:DMSO was achieved. Animals were anesthetized with 2-4% isoflurane and SARM (25 mg/kg) or vehicle were delivered subcutaneously. This dose was chosen based on prior literature which found greatest effect at this dose (Gao et al., 2004). […]

SMILES: C[C@](O)(COc1ccc(C#N)cc1)C(=O)Nc1ccc(C#N)c(C(F)(F)F)c1 [SARM, (s)-3-(4-cyanophenoxy)-n-(4-cyano-3-(trifluoromethyl)phenyl)-2-hydroxy-2-methylpropanamide]
- preference for SARM paired chamber (reward like behavior) (C57BL/6J mice; baseline vs post drug pairing): did not show an increased preference for the SARM paired chamber; also recorded: no preference for the SARM paired chamber
- time spent in SARM paired chamber, post drug pairing (C57BL/6J mice; baseline 380.3±51.0 sec, mean±SEM): 385.7 ± 37.1 s
- paw allodynia / paw hypersensitivity (von Frey number of responses) [1]: no effect on paw allodynia; also recorded: unable to alleviate paw hypersensitivity
- effect on hyperalgesia in male versus female mice ([2]; Example 1): worked equally in male and female mice
- withdrawal thresholds of the gastrocnemius muscle (pain thresholds, muscle hyperalgesia) ([2]; Example 1: daily administration of free SARM for 4 weeks vs vehicle, left and right muscle): higher pain thresholds than those receiving vehicle treatment; also recorded: reversed muscle hyperalgesia
- muscle hyperalgesia measured via muscle withdrawal threshold (MWT) ([2]; daily SARM 25 mg/kg s.c. for 4 weeks vs vehicle, ipsilateral and contralateral limb): alleviated decreased MWT bilaterally in both sexes; also recorded: significant reversal in muscle hyperalgesia; also recorded: reversed muscle hyperalgesia
